Tests used:
[1] = test system: giant foxtail; assay: Test A preemergence; type: in vivo, Setaria faberii; settings: Setaria faberi, pre-emergence, 240 h
Outline: (§1)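 Visual injury scored 0–100 (100 = complete control) against untreated controls about 10 days after treatment in a greenhouse. Test chemicals, formulated with surfactant in non-phytotoxic solvent, were sprayed on soil preemergence or on 2-10 cm, one- to two-leaf plants postemergence.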

[2] = test system: morningglory; assay: Test A preemergence; type: in vivo, Ipomoea spp.
Outline: as §1

[3] = test system: pigweed; assay: Test A preemergence; type: in vivo, Amaranthus retroflexus; settings: Amaranthus retroflexus, pre-emergence
Outline: as §1

[4] = test system: velvetleaf; assay: Test A postemergence; type: in vivo, Abutilon theophrasti; settings: Abutilon theophrasti, post-emergence, 240 h, 0 to 100 scale where 0 is no effect and 100 is complete control, read-out: Plant response rating, Velvetleaf
Outline: as §1

[5] = test system: wheat; assay: Test A postemergence; type: in vivo, Triticum aestivum; settings: Triticum aestivum, post-emergence, 240 h, 0 to 100 scale where 0 is no effect and 100 is complete control, read-out: Plant response rating, Wheat
Outline: as §1

[6] = test system: barnyardgrass; assay: Test B flooded paddy test; type: in vivo, Echinochloa crus-galli; settings: Echinochloa crus-galli; Flood, 250 g ai/ha; 0 to 100 scale where 0 is no effect and 100 is complete control; read-out: Plant response rating, Barnyardgrass
Outline: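 Plants at 2-leaf stage; pots flooded to 3 cm above soil and compound applied directly into paddy water, depth held throughout. After 13 to 15 days in greenhouse, visual rating versus controls on 0 (no effect) to 100 (complete control) scale.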

[7] = test system: wheat, winter; assay: Test C postemergence; type: in vivo, Triticum aestivum; settings: Triticum aestivum, post-emergence
Description: (§2) Seeds of plant species selected from blackgrass (Alopecurus myosuroides), Italian ryegrass (Lolium multiflorum), wheat, winter (winter wheat, Triticum aestivum), galium (catchweed bedstraw, Galium aparine), corn (Zea mays), large (Lg) crabgrass (Digitaria sanguinalis), giant foxtail (Setaria faberii), johnsongrass (Sorghum halepense), lambsquarters (Chenopodium album), morningglory (Ipomoea coccinea), yellow nutsedge (Cyperus esculentus), pigweed (Amaranthus retroflexus), ragweed (common ragweed, Ambrosia elatior), soybean (Glycine max), barnyardgrass (Echinochloa crus-galli), oilseed rape (Brassica napus), waterhemp (common waterhemp, Amaranthus rudis), kochia (Kochia scoparia), wild oat (Avena fatua), surinam grass (Brachiaria decumbens), foxtail, green (green foxtail, Setaria viridis), goosegrass (Eleusine indica), bromegrass, downy (downy bromegrass, Bromus tectorum), nightshade (eastern black nightshade, Solanum ptycanthum), cocklebur (common cocklebur, Xanthium strumarium), cupgrass, woolly (woolly cupgrass, Eriochloa villosa), bermudagrass (Cynodon dactylon), sunflower, (common oilseed sunflower, Helianthus annuus), Russian thistle (Salsola kali), and velvetleaf (Abutilon theophrasti) were planted into a blend of loam soil and sand and treated preemergence with test chemicals formulated in a non-phytotoxic solvent mixture which included a surfactant.
(§3) At the same time, plants selected from these crop and weed species and also barley, winter (winter barley, Hordeum vulgare), windgrass (Apera spica-venti), chickweed (common chickweed, Stellaria media), deadnettle (henbit deadnettle, Lamium amplexicaule), and canarygrass (littleseed canarygrass, Phalaris minor) were planted in pots containing Redi-Earth® planting medium (Scotts Company, 14111 Scottslawn Road, Marysville, Ohio 43041) comprising spaghnum peat moss, vermiculite, wetting agent and starter nutrients and treated with postemergence applications of test chemicals formulated in the same manner. Plants ranged in height from 2 to 18 cm (1- to 4-leaf stage) for postemergence treatments. Treated plants and controls were maintained in a greenhouse for 13 to 15 days, after which time all species were compared to controls and visually evaluated. Plant response ratings, summarized in Table C, are based on a scale of 0 to 100 where 0 is no effect and 100 is complete control. A dash (-) response means no test result.

[8] = test system: kochia; assay: Test C postemergence; type: in vivo, Kochia scoparia; settings: Bassia scoparia, post-emergence
Description: as §2, §3

[9] = test system: wild oat; assay: Test C postemergence; type: in vivo, Avena fatua; settings: Avena fatua, post-emergence
Outline: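 Seeds were sown in loam–sand blend and sprayed preemergence, while plants at 1- to 4-leaf stage (2–18 cm) in peat-based medium received postemergence sprays; test chemicals were formulated in a non-phytotoxic solvent with surfactant. After 13–15 days in a greenhouse, injury was rated visually against controls, 0 (no effect) to 100 (complete control).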

[10] = test system: chickweed; assay: Test C postemergence; type: in vivo, Stellaria media; settings: Stellaria media, post-emergence
Description: as §2, §3

With `FC(F)c1cnn(-c2ccccc2Oc2ncc(Cl)cn2)c1` [Compound 80, 5-chloro-2-[2-[4-(difluoromethyl)-1H-pyrazol-1-yl]phenoxy]pyrimidine] the pest or weed control at 125 g/ha ([1]; 125 g ai/ha, 0 to 100 scale where 0 is no effect and 100 is complete control, read-out: Plant response rating, Foxtail, Giant) was 90%, the pest or weed control at 500 g/ha ([1]; 500 g ai/ha, 0 to 100 scale, 0 no effect, 100 complete control, approx. 10 days, read-out: Foxtail, Giant plant response rating) was 100% and the “Plant response rating, Morningglory” value ([2]; 125 g ai/ha, 0 to 100 scale where 0 is no effect and 100 is complete control) was 30. The pest or weed control at 500 g/ha ([2]; Ipomoea, pre-emergence, 240 h, 500 g ai/ha, 0 to 100 scale, 0 no effect, 100 complete control, approx. 10 days, read-out: Morningglory plant response rating) was 80%, the pest or weed control at 125 g/ha ([3]; 125 g ai/ha, 0 to 100 scale where 0 is no effect and 100 is complete control, read-out: Plant response rating, Pigweed) was 0% and the pest or weed control at 500 g/ha ([3]; 240 h, 500 g ai/ha, 0 to 100 scale, 0 no effect, 100 complete control, approx. 10 days, read-out: Pigweed plant response rating) was 0%. It also gave a pest or weed control at 125 g/ha ([4]; 125 g ai/ha) of 100%, a pest or weed control at 500 g/ha ([4]; 500 g ai/ha) of 100% and a plant injury at 125 g/ha ([5]; 125 g ai/ha) of 40%. The plant injury at 500 g/ha ([5]; 500 g ai/ha) was 80%, the pest or weed control at 250 g/ha [6] was 0% and the plant injury at 125 g/ha ([7]; 125 g ai/ha, postemergence, read-out: Plant response rating (0 to 100), Wheat) was 30%. The plant injury at 31 g/ha ([7]; Postemergence, 31 g ai/ha, scale 0 to 100 (0 no effect, 100 complete control), 13 to 15 days, read-out: Plant response rating, Wheat) was 0%, the plant injury at 62 g/ha ([7]; Postemergence, 62 g ai/ha, scale 0 to 100 (0 no effect, 100 complete control), read-out: Plant response rating, Wheat) was 5% and the pest or weed control at 16 g/ha ([8]; 16 g ai/ha, postemergence, visual rating, scale 0 to 100 (0 no effect, 100 complete control), 13 to 15 days, read-out: Kochia plant response rating) was 60%. For the same molecule, the pest or weed control at 125 g/ha ([8]; 125 g ai/ha, postemergence, read-out: Plant response rating (0 to 100), Kochia) was 95%, the pest or weed control at 31 g/ha ([8]; Postemergence, 31 g ai/ha, scale 0 to 100 (0 no effect, 100 complete control), 13 to 15 days, read-out: Plant response rating, Kochia) was 90% and the pest or weed control at 62 g/ha ([8]; Postemergence, 62 g ai/ha, scale 0 to 100 (0 no effect, 100 complete control), read-out: Plant response rating, Kochia) was 95%. It also gave a pest or weed control at 125 g/ha ([9]; 125 g ai/ha, postemergence, read-out: Plant response rating (0 to 100), Oat, Wild) of 10%, a pest or weed control at 31 g/ha ([9]; Postemergence, 31 g ai/ha, scale 0 to 100 (0 no effect, 100 complete control), 13 to 15 days, read-out: Plant response rating, Oat, Wild) of 0% and a pest or weed control at 62 g/ha ([9]; Postemergence, 62 g ai/ha, scale 0 to 100 (0 no effect, 100 complete control), read-out: Plant response rating, Oat, Wild) of 5%. The pest or weed control at 16 g/ha ([10]; 16 g ai/ha, postemergence, visual rating, scale 0 to 100 (0 no effect, 100 complete control), 13 to 15 days, read-out: Chickweed plant response rating) was 50%, the pest or weed control at 125 g/ha ([10]; 125 g ai/ha, postemergence, read-out: Plant response rating (0 to 100), Chickweed) was 70% and the pest or weed control at 31 g/ha ([10]; Postemergence, 31 g ai/ha, scale 0 to 100 (0 no effect, 100 complete control), 13 to 15 days, read-out: Plant response rating, Chickweed) was 60%. The pest or weed control at 62 g/ha ([10]; Postemergence, 62 g ai/ha, scale 0 to 100 (0 no effect, 100 complete control), read-out: Plant response rating, Chickweed) was 65%.
